In patent US5464836A, “Benzophenones having an antifungal activity” (Ministero dell'Universita` e della Ricerca Scientifica e …, priority 1991, dated 1995):

System: Helminthosporium teres
Experiment: preventive fungicidal activity on Helminthosporium teres (barley leaves)
Assay type: in vivo
Settings: barley leaves cv. Arna, 12 days, scale 100 (healthy plant) to 0 (completely infected plant)
Procedure: Determination of the preventive fungicidal activity on Helminthosporium teres. Barley leaves cv. Arna, cultivated in a vase in a conditioned environment, were treated by spraying both sides with the products being tested (compounds 1 and 2) in a 20% hydroacetonic solution of acetone (vol./vol.). After remaining 2 days in the conditioned environment at 20° C. and 70% R.H., the plants were sprayed on both sides of the leaves with an aqueous suspension of Helminthosporium teres (250.000 conidii per cc.). After 24 hours in a humidity saturated atmosphere, at 21° C., the plants were kept in a conditioned environment for the incubation of the fungus. At the end of this period (12 days), the gravity of infection was estimated by observation, with a scale of indexes ranging from 100 (healthy plant) to 0 (completely infected plant).

Structure (SMILES) | % Control Helminthosporium (dosage 125 ppm) [%] | % Control Helminthosporium (dosage 500 ppm) [%]
CC(Cc1cccc(C(=O)c2ccccc2)c1)CN1C[C@@H](C)O[C@@H](C)C1 (stereo partly shown) [Compound 1, 4-[3-(3-benzoylphenyl)-2-methylpropyl]-2,6-dimethylmorpholine] | 100 | 100
CC(Cc1cccc(C(=O)c2ccc(Cl)cc2)c1)CN1C[C@@H](C)O[C@@H](C)C1 (stereo partly shown) [Compound 2, 4-[3-(3-(4-chlorobenzoyl)phenyl)-2-methylpropyl]-2,6-dimethylmorpholine] | 100 | 100
